Tests used:
LS174T xenografts [1] = experiment: Dual isotope biodistribution with different amounts of clearing agent 12 (Example 6); format: in vivo, mice
Protocol: (§1) LS174T tumor model. The human colon cancer cell line LS174T was obtained from the ATCC and maintained in Eagle's minimal essential medium (Sigma) supplemented with 10% heat inactivated fetal calf serum (Gibco), penicillin (100 U/mL), streptomycin (100 μg/mL) and […] Glutamax. Nude female Balb/C mice (20-25 g body weight, Charles River Laboratories) were inoculated subcutaneously with 5×10^6 cells in 100 μL sterile PBS.
Nude female mice (n=3-4) bearing LS174T xenografts (0.32±0.16 g) were injected ^125I-CC49-TCO (t=0, 100 μg/100 μl per mouse) followed by 20-200 μg galactose-MSA-tetrazine (12) dissolved in 100 μl saline solution (t=24 hours) and ^111In-labeled 15 (21.3 μg/75 μl per mouse, t=26 hours). At 29 hours post mAb injection, the mice were sacrificed, blood was withdrawn by heart puncture and selected organs and tissues were harvested and blotted dry. The blood samples and tissues were weighed, added with 1 mL PBS and the radioactivity was counted in a gamma counter along with standards to determine the % ID/g (Table 1).

LS174T xenografts [2] = experiment: Biodistribution with single and repeated dose of clearing agent 12 (Example 7); format: in vivo, mice
Protocol: as §1
Nude female mice (n=4-6) bearing LS174T xenografts (0.38±0.23 g) were injected ^125I-CC49-TCO (t=0, 100 μg/100 μl per mouse) followed by (a) one 160 μg/100 μl dose of galactose-MSA-tetrazine (12) 48 hours post mAb injection, or (b) two 160 μg/100 μl 12 doses 46 and 48 hours post mAb injection, or (c) two 160 μg/100 μl 12 doses 28 and 48 hours post mAb injection. At 50 hours post mAb injection, the mice received 8.52 μg ^111In-tetrazine and were then sacrificed three hours later, blood was withdrawn by heart puncture and selected organs and tissues were harvested and blotted dry. The blood samples and tissues were weighed, added with 1 mL PBS and the radioactivity was counted in a gamma counter along with standards to determine the % ID/g. The biodistribution data of ^125I-CC49-TCO and ^111In-tetrazine are shown in Table 2 and the ^111In-tetrazine T/organ values are shown in Table 3.

[3] = without clearing agent, 21.3 μg tetrazine/mouse 24 hours post mAb injection; cited from earlier work
[4] = One dose (a): 12 at 48 h post mAb
[5] = Two doses (b): 12 at 46 and 48 h
[6] = Two doses (c): 12 at 28 and 48 h

SMILES: O=C([O-])CN1CCN(CC(=O)[O-])CCN(CC(=O)NCCOCCOCCOCCOCCOCCOCCOCCOCCOCCOCCOCCNC(=O)CCCC(=O)Nc2ccc(-c3nnc(-c4ccccn4)nn3)nc2)CCN(CC(=O)[O-])CC1.[111In+3] [^111In-tetrazine]
- ^111In-tetrazine T/B (LS174T xenografts [1]; 12 dose 20 μg/mouse): 4.5 ± 0.5
- ^111In-tetrazine Tumor (LS174T xenografts [1]; 12 dose 20 μg/mouse): 3.7 ± 0.8 % ID/g
- ^111In-tetrazine T/B (LS174T xenografts [1]; 12 dose 45 μg/mouse): 4.8 ± 0.3
- ^111In-tetrazine Tumor (LS174T xenografts [1]; 12 dose 45 μg/mouse): 4.1 ± 1.3 % ID/g
- ^111In-tetrazine T/B (LS174T xenografts [1]; 12 dose 80 μg/mouse): 9.2 ± 1.6
- ^111In-tetrazine Tumor (LS174T xenografts [1]; 12 dose 80 μg/mouse): 3.8 ± 1.1 % ID/g
- ^111In-tetrazine T/B (LS174T xenografts [1]; 12 dose 120 μg/mouse): 11.5 ± 4.2
- ^111In-tetrazine Tumor (LS174T xenografts [1]; 12 dose 120 μg/mouse): 3.0 ± 0.8 % ID/g
- ^111In-tetrazine T/B (LS174T xenografts [1]; 12 dose 160 μg/mouse): 31.6 ± 10.5
- ^111In-tetrazine Tumor (LS174T xenografts [1]; 12 dose 160 μg/mouse): 5.1 ± 1.4 % ID/g
- ^111In-tetrazine T/B (LS174T xenografts [1]; 12 dose 200 μg/mouse): 19.2 ± 3.0
- ^111In-tetrazine Tumor (LS174T xenografts [1]; 12 dose 200 μg/mouse): 3.6 ± 0.9 % ID/g
- ^111In-tetrazine T/organ blood (LS174T xenografts [2]; [4]): 8.2±4.1
- ^111In-tetrazine T/organ bone (LS174T xenografts [2]; [4]): 10.5 ± 6.5
- ^111In-tetrazine T/organ brain (LS174T xenografts [2]; [4]): 148.05 ± 61.18
- ^111In-tetrazine T/organ heart (LS174T xenografts [2]; [4]): 6.7 ± 1.3
- ^111In-tetrazine T/organ kidney (LS174T xenografts [2]; [4]): 2.8 ± 0.3
- ^111In-tetrazine T/organ liver (LS174T xenografts [2]; [4]): 10.9 ± 1.7
- ^111In-tetrazine T/organ lung (LS174T xenografts [2]; [4]): 3.1 ± 0.5
- ^111In-tetrazine T/organ muscle (LS174T xenografts [2]; [4]): 9.2±3.6
- ^111In-tetrazine T/organ spleen (LS174T xenografts [2]; [4]): 11.3 ± 3.3
- ^111In-tetrazine in blood (LS174T xenografts [2]; [4]): 0.40 ± 0.10 % ID/g
- ^111In-tetrazine in bone (LS174T xenografts [2]; [4]): 0.33 ± 0.12 % ID/g
- ^111In-tetrazine in brain (LS174T xenografts [2]; [4]): 0.02 ± 0.00 % ID/g
- ^111In-tetrazine in heart (LS174T xenografts [2]; [4]): 0.45 ± 0.08 % ID/g
- ^111In-tetrazine in kidney (LS174T xenografts [2]; [4]): 1.07 ± 0.10 % ID/g
- ^111In-tetrazine in liver (LS174T xenografts [2]; [4]): 0.27 ± 0.04 % ID/g
- ^111In-tetrazine in lung (LS174T xenografts [2]; [4]): 0.97 ± 0.17 % ID/g
- ^111In-tetrazine in muscle (LS174T xenografts [2]; [4]): 0.35 ± 0.08 % ID/g
- ^111In-tetrazine in spleen (LS174T xenografts [2]; [4]): 0.27 ± 0.04 % ID/g
- ^111In-tetrazine in tumor (LS174T xenografts [2]; [4]): 2.98 ± 0.51 % ID/g
- ^111In-tetrazine T/organ blood (LS174T xenografts [2]; [5]): 15.2 ± 4.1
- ^111In-tetrazine T/organ bone (LS174T xenografts [2]; [5]): 16.7 ± 6.7
- ^111In-tetrazine T/organ brain (LS174T xenografts [2]; [5]): 222.2 ± 73.6
- ^111In-tetrazine T/organ heart (LS174T xenografts [2]; [5]): 25.6 ± 12.0
- ^111In-tetrazine T/organ kidney (LS174T xenografts [2]; [5]): 1.6 ± 0.6
- ^111In-tetrazine T/organ liver (LS174T xenografts [2]; [5]): 11.5 ± 3.7
- ^111In-tetrazine T/organ lung (LS174T xenografts [2]; [5]): 8.5 ± 4.2
- ^111In-tetrazine T/organ muscle (LS174T xenografts [2]; [5]): 19.3 ± 9.2
- ^111In-tetrazine T/organ spleen (LS174T xenografts [2]; [5]): 15.1 ± 4.9
- ^111In-tetrazine in blood (LS174T xenografts [2]; [5]): 0.10 ± 0.02 % ID/g
- ^111In-tetrazine in bone (LS174T xenografts [2]; [5]): 0.10 ± 0.02 % ID/g
- ^111In-tetrazine in brain (LS174T xenografts [2]; [5]): 0.01 ± 0.00 % ID/g
- ^111In-tetrazine in heart (LS174T xenografts [2]; [5]): 0.07 ± 0.02 % ID/g
- ^111In-tetrazine in kidney (LS174T xenografts [2]; [5]): 0.95 ± 0.06 % ID/g
- ^111In-tetrazine in liver (LS174T xenografts [2]; [5]): 0.13 ± 0.01 % ID/g
- ^111In-tetrazine in lung (LS174T xenografts [2]; [5]): 0.20 ± 0.07 % ID/g
- ^111In-tetrazine in muscle (LS174T xenografts [2]; [5]): 0.09 ± 0.03 % ID/g
- ^111In-tetrazine in spleen (LS174T xenografts [2]; [5]): 0.10 ± 0.00 % ID/g
- ^111In-tetrazine in tumor (LS174T xenografts [2]; [5]): 1.52 ± 0.48 % ID/g
- ^111In-tetrazine T/organ blood (LS174T xenografts [2]; [6]): 89.0±14.3
- ^111In-tetrazine T/organ bone (LS174T xenografts [2]; [6]): 93.5 ± 19.7
- ^111In-tetrazine T/organ brain (LS174T xenografts [2]; [6]): 750.2 ± 87.5
- ^111In-tetrazine T/organ heart (LS174T xenografts [2]; [6]): 82.9 ± 21.3
- ^111In-tetrazine T/organ kidney (LS174T xenografts [2]; [6]): 3.7 ± 0.8
- ^111In-tetrazine T/organ liver (LS174T xenografts [2]; [6]): 32.3 ± 5.9
- ^111In-tetrazine T/organ lung (LS174T xenografts [2]; [6]): 27.9 ± 7.0
- ^111In-tetrazine T/organ muscle (LS174T xenografts [2]; [6]): 146.3±30.3
- ^111In-tetrazine T/organ spleen (LS174T xenografts [2]; [6]): 42.4 ± 7.7
- ^111In-tetrazine in blood (LS174T xenografts [2]; [6]): 0.05 ± 0.00 % ID/g
- ^111In-tetrazine in bone (LS174T xenografts [2]; [6]): 0.05 ± 0.01 % ID/g
- ^111In-tetrazine in brain (LS174T xenografts [2]; [6]): 0.01 ± 0.00 % ID/g
- ^111In-tetrazine in heart (LS174T xenografts [2]; [6]): 0.05 ± 0.01 % ID/g
- ^111In-tetrazine in kidney (LS174T xenografts [2]; [6]): 1.18 ± 0.13 % ID/g
- ^111In-tetrazine in liver (LS174T xenografts [2]; [6]): 0.13 ± 0.01 % ID/g
- ^111In-tetrazine in lung (LS174T xenografts [2]; [6]): 0.16 ± 0.03 % ID/g
- ^111In-tetrazine in muscle (LS174T xenografts [2]; [6]): 0.03 ± 0.00 % ID/g
- ^111In-tetrazine in spleen (LS174T xenografts [2]; [6]): 0.10 ± 0.01 % ID/g
- ^111In-tetrazine in tumor (LS174T xenografts [2]; [6]): 4.30 ± 0.50 % ID/g
- T/blood ratio [3]: 2.2±0.5

From patent US9427482B2, “Agents for clearing biomolecules from circulation” (KONINKLIJKE PHILIPS N.V., priority 2010, dated 2016)
